Reference: PubChem BioAssay (NCI)
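How tested: cells in 96-well plates exposed to compound for 48 hours at five concentrations. The concentration for 50% growth inhibition is given as GI50. TGI marks complete inhibition of growth.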

Columns and labels:
Assay in all cases: NCI anticancer screen, dose series, 48 h
A549 NSCLC = tested on: A549 NSCLC
NCI/ADR-RES ovarian = tested on: NCI/ADR-RES ovarian
HS 578T breast = tested on: HS 578T breast
OVCAR-5 ovarian = tested on: OVCAR-5 ovarian
T-47D breast = tested on: T-47D breast
CAKI-1 renal = tested on: CAKI-1 renal
HCT-15 colon = tested on: HCT-15 colon
NCI-H522 lung = tested on: NCI-H522 lung
UACC-62 melanoma = tested on: UACC-62 melanoma
OVCAR-4 ovarian = tested on: OVCAR-4 ovarian

Compound	GI50 (A549 NSCLC) [µM]	TGI (A549 NSCLC) [µM]	GI50 (NCI/ADR-RES ovarian) [µM]	TGI (NCI/ADR-RES ovarian) [µM]	GI50 (HS 578T breast) [µM]	TGI (HS 578T breast) [µM]	GI50 (OVCAR-5 ovarian) [µM]	TGI (OVCAR-5 ovarian) [µM]	GI50 (T-47D breast) [µM]	TGI (T-47D breast) [µM]	GI50 (CAKI-1 renal) [µM]	TGI (CAKI-1 renal) [µM]	GI50 (HCT-15 colon) [µM]	TGI (HCT-15 colon) [µM]	GI50 (NCI-H522 lung) [µM]	TGI (NCI-H522 lung) [µM]	GI50 (UACC-62 melanoma) [µM]	TGI (UACC-62 melanoma) [µM]	GI50 (OVCAR-4 ovarian) [µM]	TGI (OVCAR-4 ovarian) [µM]
COc1ccc(-c2ccc3c(NC(=O)C4CC4)n[nH]c3n2)cc1	> 25	> 25	> 25	> 25	23.6	> 25	> 25	> 25	> 25	> 25	> 25	> 25	> 25	> 25	> 22.9	> 25	> 25	> 25	> 25	> 25
S=c1nc[nH]c2c1ncn2Cc1ccco1		> 100		> 100		> 100		> 100		> 100		> 100		> 100		> 100		> 100		> 100
CCSc1oc(-c2ccccc2)nc1[P+](c1ccccc1)(c1ccccc1)c1ccccc1	0.301	4.71	2.29	9.58	0.314	2.72	0.416	6.36	0.0686	1.15	0.79	2.66	0.622	4.66	0.261	1.09	0.305	1.44	0.217	1.48
S=c1nc(-c2nc(=S)[nH]c3c2CCCCCCCCCC3)c2c([nH]1)CCCCCCCCCC2		> 100		> 100		> 100		> 100		> 100		> 100		> 100		> 100		> 100		> 100
O=C1c2ccccc2C(=O)c2c(NCCCNCCO)ccc(NCCCNCCO)c21		47.3		> 100		34.4		44.7		68.2		98.2		29.8		15.5		24.6		26.9
Cn1nc(C(F)(F)F)c(-c2ccc(Cl)c(C(F)(F)F)c2)c1-c1ccc(OCc2ccc(Cl)cc2)cc1O	1.66	6.16	1.56	4.99	1.42	8.98	1.83	8.26	1.27	5.32	1.48	5.62	1.6	6	1.47	5.64	1.58	5.8	1.62	6.13
CC[C@@]1(O)C(=O)NCc2c1cc1n(c2=O)Cc2cc3ccccc3nc2-1	2.37	> 100	2.92	> 48.2	> 100	> 100	15.1	> 100	2.63	> 100	0.754	11	25.8	> 100	> 22.6	> 100	1.87	> 100	35.5	> 100
